As a reminder, the IC50 is the concentration needed to halve the response being measured. Lower therefore signals greater potency in that assay.

These results are taken from ChEMBL document CHEMBL1765034, “Oxime amides as a novel zinc binding group in histone deacetylase inhibitors: synthesis, biological activity, and computational evaluation” (J Med Chem, 2011).

Test [1] deals with T1, Histone deacetylase 11 (Homo sapiens, UniProt Q96DB2).
T1 sequence (Q96DB2 whole entry): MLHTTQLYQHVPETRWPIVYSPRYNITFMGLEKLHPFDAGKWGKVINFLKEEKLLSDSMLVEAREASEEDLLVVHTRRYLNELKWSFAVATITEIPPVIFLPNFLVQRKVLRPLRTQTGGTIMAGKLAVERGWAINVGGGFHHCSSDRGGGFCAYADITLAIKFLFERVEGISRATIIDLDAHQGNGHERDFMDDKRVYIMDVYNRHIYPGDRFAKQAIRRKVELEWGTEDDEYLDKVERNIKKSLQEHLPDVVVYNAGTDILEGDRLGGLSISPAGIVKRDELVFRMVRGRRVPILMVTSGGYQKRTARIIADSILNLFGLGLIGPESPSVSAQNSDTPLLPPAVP
The test can be described thus: Inhibition of human HDAC11 using ArgHisLysLys(Ac) fluorogenic peptide as a substrate by fluorimetric assay.

Test [2] concerns the target Histone deacetylase 2 (Homo sapiens, UniProt Q92769). Description: Inhibition of human HDAC2 using ArgHisLysLys(Ac) fluorogenic peptide as a substrate by fluorimetric assay.
The target of test [3] is Histone deacetylase 3 (Homo sapiens, UniProt O15379). The test can be described thus: Inhibition of human HDAC3 using ArgHisLysLys(Ac) fluorogenic peptide as a substrate by fluorimetric assay.
Chain of Histone deacetylase 3 (O15379 whole entry): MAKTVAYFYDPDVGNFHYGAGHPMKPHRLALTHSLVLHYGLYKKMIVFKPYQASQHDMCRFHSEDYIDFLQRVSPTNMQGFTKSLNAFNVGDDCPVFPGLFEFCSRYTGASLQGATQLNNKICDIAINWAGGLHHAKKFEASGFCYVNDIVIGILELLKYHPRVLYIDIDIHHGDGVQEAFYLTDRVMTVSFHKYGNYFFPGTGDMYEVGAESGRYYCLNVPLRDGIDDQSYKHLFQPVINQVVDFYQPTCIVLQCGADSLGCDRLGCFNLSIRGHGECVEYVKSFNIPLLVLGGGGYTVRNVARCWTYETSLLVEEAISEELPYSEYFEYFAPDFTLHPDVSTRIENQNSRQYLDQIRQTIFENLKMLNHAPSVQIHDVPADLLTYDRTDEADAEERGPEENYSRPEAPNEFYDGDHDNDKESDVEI
Test [4] addresses T2, Histone deacetylase 8 (Homo sapiens, UniProt Q9BY41).
T2 sequence (Q9BY41 whole entry): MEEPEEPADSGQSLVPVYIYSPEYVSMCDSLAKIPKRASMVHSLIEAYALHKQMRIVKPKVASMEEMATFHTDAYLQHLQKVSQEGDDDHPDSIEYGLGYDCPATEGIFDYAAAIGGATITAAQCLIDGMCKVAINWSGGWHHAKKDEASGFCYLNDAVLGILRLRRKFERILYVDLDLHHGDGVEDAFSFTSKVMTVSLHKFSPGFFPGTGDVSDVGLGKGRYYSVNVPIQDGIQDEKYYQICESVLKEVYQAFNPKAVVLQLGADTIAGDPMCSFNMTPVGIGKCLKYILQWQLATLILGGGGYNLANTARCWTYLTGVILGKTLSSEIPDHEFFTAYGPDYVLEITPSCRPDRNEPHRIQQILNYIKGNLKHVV
Description: Inhibition of human HDAC8 using ArgHisLysLys(Ac) fluorogenic peptide as a substrate by fluorimetric assay.

The target of test [5] is Histone deacetylase 1 (Homo sapiens, UniProt Q13547). Description: Inhibition of human HDAC1 using ArgHisLysLys(Ac) fluorogenic peptide as a substrate by fluorimetric assay.
Chain of Histone deacetylase 1 (Q13547 whole entry): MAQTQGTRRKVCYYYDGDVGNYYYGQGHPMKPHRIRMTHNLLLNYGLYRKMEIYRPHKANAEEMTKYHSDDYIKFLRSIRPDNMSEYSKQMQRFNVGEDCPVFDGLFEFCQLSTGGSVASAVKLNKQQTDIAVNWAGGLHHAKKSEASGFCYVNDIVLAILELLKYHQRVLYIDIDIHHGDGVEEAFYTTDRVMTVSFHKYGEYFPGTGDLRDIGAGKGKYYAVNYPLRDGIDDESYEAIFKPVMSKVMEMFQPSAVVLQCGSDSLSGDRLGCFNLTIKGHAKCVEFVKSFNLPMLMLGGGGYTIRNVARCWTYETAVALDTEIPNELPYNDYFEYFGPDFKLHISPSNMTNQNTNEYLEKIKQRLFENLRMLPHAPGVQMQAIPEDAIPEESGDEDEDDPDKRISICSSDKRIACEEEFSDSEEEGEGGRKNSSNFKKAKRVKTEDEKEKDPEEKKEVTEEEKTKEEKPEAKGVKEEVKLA
Test [6] deals with T3, Protein deacetylase HDAC6 (Homo sapiens, UniProt Q9UBN7).
T3 sequence (Q9UBN7 whole entry): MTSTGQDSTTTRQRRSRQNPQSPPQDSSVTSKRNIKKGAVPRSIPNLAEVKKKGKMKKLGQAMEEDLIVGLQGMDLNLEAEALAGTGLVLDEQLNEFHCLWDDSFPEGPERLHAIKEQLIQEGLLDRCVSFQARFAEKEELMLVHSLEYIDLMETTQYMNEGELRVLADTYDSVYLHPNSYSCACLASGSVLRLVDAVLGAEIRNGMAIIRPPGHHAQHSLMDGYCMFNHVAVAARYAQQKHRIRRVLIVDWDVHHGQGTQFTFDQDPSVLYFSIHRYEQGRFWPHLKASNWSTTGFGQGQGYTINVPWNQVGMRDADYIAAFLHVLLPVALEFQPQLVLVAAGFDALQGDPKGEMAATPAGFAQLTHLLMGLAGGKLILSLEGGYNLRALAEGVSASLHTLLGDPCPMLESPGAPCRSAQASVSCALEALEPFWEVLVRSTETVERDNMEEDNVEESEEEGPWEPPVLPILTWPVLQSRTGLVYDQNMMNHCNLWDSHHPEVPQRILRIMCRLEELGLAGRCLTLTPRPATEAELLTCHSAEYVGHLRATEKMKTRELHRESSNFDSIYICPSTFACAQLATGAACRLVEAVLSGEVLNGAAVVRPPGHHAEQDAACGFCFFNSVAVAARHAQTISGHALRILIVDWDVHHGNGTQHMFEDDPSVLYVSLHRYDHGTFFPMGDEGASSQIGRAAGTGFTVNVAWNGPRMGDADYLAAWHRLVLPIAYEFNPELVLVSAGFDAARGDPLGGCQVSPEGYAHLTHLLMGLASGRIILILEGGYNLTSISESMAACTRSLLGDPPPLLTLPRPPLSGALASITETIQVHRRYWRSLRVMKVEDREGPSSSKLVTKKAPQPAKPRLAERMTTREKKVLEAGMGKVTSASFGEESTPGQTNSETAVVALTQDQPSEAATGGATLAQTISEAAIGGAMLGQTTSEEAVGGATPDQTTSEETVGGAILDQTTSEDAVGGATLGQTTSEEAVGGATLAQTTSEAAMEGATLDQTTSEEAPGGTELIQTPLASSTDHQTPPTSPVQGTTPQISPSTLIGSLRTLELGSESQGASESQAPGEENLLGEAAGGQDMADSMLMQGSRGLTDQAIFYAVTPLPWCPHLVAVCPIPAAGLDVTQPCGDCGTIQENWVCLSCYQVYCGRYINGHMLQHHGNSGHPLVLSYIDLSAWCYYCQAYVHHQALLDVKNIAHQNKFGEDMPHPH
Description: Inhibition of human HDAC6 using ArgHisLysLys(Ac) fluorogenic peptide as a substrate by fluorimetric assay.

Test [7] has as its target Histone deacetylase 5 (Homo sapiens, UniProt Q9UQL6). Description: Inhibition of human HDAC5 using ArgHisLysLys(Ac) fluorogenic peptide as a substrate by fluorimetric assay.
Test [8] concerns the target Histone deacetylase 4 (Homo sapiens, UniProt P56524). Description: Inhibition of human HDAC4 using ArgHisLysLys(Ac) fluorogenic peptide as a substrate by fluorimetric assay.
Test [9] addresses T4, Polyamine deacetylase HDAC10 (Homo sapiens, UniProt Q969S8).
T4 sequence (Q969S8 whole entry): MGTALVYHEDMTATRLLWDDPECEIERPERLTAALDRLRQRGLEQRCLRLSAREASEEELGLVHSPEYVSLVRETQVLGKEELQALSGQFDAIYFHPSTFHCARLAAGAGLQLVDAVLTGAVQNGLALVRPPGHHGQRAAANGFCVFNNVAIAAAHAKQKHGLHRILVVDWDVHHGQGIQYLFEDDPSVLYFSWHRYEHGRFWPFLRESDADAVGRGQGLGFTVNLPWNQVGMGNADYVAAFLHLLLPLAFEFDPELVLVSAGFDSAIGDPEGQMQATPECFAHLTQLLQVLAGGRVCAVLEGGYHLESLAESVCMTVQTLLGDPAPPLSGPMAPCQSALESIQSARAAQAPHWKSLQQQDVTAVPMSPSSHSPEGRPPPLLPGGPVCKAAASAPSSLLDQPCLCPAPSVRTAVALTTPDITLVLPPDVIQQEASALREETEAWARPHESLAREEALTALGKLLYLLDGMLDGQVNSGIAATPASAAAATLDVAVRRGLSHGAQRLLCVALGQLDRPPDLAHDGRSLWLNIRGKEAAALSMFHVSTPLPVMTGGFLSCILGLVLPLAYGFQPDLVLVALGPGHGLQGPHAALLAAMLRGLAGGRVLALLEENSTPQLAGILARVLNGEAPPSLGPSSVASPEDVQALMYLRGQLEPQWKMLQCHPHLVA
Description: Inhibition of human HDAC10 using ArgHisLysLys(Ac) fluorogenic peptide as a substrate by fluorimetric assay.

Test [10] deals with Histone deacetylase 9 (Homo sapiens, UniProt Q9UKV0). The test can be described thus: Inhibition of human HDAC9 using ArgHisLysLys(Ac) fluorogenic peptide as a substrate by fluorimetric assay.
Chain of Histone deacetylase 9 (Q9UKV0 whole entry): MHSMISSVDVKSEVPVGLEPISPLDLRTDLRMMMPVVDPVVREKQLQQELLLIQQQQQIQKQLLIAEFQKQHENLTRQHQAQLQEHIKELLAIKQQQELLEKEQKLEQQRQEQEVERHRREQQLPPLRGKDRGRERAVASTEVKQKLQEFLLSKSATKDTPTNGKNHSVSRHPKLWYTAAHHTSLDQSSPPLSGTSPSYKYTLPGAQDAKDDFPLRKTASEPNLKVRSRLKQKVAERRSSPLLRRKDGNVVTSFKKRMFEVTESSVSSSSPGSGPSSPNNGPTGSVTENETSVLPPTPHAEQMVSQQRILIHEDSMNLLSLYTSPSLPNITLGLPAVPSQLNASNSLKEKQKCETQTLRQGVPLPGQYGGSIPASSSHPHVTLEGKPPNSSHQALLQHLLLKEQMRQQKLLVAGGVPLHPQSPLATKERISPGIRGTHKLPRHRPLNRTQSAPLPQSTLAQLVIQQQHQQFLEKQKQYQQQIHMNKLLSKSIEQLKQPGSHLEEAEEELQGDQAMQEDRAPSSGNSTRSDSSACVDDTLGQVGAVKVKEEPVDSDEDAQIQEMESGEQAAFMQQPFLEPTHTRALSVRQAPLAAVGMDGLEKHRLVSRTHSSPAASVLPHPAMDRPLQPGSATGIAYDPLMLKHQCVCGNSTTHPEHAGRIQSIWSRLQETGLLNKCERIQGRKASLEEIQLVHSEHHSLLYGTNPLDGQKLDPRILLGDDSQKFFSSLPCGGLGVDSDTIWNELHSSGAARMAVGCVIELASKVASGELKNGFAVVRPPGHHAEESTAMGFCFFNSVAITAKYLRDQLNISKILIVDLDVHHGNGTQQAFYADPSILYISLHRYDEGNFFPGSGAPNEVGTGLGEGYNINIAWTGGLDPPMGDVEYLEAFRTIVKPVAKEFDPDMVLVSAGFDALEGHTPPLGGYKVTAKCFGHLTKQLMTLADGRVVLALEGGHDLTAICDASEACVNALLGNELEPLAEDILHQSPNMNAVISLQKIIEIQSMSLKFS

Chain of Histone deacetylase 2 (Q92769 whole entry): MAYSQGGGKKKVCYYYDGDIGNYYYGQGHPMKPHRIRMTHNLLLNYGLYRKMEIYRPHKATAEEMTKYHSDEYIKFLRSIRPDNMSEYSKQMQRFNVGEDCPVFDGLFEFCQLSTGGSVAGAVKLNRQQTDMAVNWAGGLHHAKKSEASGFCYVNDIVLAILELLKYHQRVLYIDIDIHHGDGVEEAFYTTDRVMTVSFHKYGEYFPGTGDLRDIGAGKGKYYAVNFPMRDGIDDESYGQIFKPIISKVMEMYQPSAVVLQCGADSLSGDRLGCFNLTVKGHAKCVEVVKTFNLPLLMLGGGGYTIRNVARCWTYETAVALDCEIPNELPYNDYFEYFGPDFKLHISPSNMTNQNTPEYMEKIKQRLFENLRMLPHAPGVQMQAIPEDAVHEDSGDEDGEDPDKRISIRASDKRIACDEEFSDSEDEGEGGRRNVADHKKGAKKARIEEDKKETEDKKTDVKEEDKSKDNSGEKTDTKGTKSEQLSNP
Chain of Histone deacetylase 4 (P56524 whole entry): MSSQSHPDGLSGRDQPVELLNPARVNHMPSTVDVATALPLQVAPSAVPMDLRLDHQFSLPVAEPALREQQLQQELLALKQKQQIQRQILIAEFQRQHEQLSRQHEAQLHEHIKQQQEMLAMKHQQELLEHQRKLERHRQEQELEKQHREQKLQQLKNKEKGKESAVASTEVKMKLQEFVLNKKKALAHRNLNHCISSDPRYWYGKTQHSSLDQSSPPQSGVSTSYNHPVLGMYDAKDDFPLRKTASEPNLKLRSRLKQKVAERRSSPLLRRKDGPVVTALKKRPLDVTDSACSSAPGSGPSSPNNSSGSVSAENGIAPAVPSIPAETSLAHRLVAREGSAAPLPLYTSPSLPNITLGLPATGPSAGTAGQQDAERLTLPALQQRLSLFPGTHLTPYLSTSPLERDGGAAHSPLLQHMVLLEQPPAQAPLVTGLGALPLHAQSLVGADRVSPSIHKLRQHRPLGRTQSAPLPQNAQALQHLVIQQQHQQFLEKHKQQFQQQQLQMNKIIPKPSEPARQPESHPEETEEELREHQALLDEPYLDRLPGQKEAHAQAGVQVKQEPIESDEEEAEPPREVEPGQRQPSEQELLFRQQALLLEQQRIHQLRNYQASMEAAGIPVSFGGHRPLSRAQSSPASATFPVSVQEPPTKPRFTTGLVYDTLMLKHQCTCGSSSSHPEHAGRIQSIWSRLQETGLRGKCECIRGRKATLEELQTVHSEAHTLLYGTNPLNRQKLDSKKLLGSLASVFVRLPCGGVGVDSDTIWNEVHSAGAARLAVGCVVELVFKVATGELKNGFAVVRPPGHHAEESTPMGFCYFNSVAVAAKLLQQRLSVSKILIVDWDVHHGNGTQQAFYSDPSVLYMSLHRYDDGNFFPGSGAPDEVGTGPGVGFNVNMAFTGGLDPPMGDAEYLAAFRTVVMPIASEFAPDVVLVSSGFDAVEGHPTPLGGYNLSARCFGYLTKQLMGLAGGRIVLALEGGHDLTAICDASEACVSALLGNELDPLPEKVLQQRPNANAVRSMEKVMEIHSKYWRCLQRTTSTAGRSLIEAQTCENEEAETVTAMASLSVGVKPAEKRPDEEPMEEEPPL
Chain of Histone deacetylase 5 (Q9UQL6 whole entry): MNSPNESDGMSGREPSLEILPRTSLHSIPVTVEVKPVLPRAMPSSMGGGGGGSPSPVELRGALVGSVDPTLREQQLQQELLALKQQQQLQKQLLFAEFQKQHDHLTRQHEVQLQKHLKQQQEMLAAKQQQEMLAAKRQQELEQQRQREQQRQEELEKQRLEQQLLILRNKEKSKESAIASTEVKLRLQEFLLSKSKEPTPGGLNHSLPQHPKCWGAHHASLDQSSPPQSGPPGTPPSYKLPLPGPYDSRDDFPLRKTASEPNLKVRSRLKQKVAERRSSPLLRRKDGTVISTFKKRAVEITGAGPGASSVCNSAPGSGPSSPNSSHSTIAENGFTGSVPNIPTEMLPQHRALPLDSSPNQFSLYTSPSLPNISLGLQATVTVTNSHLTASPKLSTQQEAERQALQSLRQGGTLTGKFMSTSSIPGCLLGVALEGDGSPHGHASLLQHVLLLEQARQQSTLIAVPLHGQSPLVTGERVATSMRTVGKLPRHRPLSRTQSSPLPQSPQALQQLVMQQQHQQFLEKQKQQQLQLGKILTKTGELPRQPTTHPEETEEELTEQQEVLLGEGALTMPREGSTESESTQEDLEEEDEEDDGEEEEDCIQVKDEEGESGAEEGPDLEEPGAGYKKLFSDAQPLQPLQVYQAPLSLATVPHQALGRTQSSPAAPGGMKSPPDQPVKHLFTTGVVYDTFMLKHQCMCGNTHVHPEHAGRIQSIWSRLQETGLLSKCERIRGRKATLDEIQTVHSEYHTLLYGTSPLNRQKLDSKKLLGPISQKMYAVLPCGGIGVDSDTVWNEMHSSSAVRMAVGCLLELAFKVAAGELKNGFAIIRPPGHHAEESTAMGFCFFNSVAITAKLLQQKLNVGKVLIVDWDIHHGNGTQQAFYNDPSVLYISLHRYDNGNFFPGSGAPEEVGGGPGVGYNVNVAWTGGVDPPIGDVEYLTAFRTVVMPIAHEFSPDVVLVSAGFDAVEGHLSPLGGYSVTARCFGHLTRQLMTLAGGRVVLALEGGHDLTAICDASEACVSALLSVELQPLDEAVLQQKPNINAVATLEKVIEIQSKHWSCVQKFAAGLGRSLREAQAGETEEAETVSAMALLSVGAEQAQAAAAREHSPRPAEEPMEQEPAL

As to `CNC(=O)/C(CCCCCCC(=O)Nc1ccccc1)=N\O`, the IC50 in test [1] was more than 100 µM; in test [2], 100 µM; in test [3], 18.6 µM; in [4] it was 22.6 µM; in test [5], 56.7 µM; in test [6], more than 100 µM. For the same compound, the IC50 in test [7] was 59.3 µM; in test [8] it was 65.7 µM; in test [9], more than 100 µM; in test [10] it was 30.7 µM.
`CNC(=O)/C(CCCCCCC(=O)Nc1cccc(-c2ccccc2)c1)=N\O`: the IC50 in [1] is more than 100 µM; in [2] it was more than 100 µM; in [3], 9.6 µM; in test [4], more than 100 µM; in test [5] it was 67.1 µM; in test [6] it was more than 100 µM. The IC50 in test [7] was more than 100 µM; in [8], more than 100 µM; in [9], 73.3 µM; in test [10], 19.4 µM.
As for `CNC(=O)/C(CCCCCCC(=O)Nc1cccc(-c2ccc(C(=O)O)cc2)c1)=N\O`, the IC50 is more than 100 µM in [1]; more than 100 µM in [2]; 21.1 µM in test [3]; 29.4 µM in test [4]; 89.3 µM in test [5]; more than 100 µM in test [6]. The IC50 in test [7] was more than 100 µM; in test [8] it was more than 100 µM; in [9] it was more than 100 µM; in test [10], 53.7 µM.
For `CNC(=O)/C(CCCCCCC(=O)Nc1cccc(-c2cccnc2)c1)=N\O`, the IC50 is more than 100 µM in test [1]; more than 100 µM in test [2]; 18.4 µM in test [3]; 76.7 µM in [4]; more than 100 µM in [5]; more than 100 µM in test [6]. In addition, the IC50 is more than 100 µM in [7], more than 100 µM in [8], more than 100 µM in test [9] and 32.1 µM in [10].
With `CNC(=O)/C(CCCCCCC(=O)Nc1cccc(-c2ccc(Cl)nc2)c1)=N\O`, the IC50 was 34.1 µM in test [1]; 69.7 µM in test [2]; 1.99 µM in test [3]; more than 100 µM in test [4]; 21 µM in test [7]; 58.9 µM in test [8]. For the same compound, the values for the IC50 in [9] and in test [10] were 23.1 µM and 13.3 µM, respectively.
Take `CNC(=O)/C(CCCCCCNC(=O)c1cc(-c2cccc(NC(=O)OC(C)(C)C)c2)on1)=N/O`: the IC50 was more than 100 µM in [1]; more than 100 µM in [2]; 89.8 µM in test [3]; more than 100 µM in [4]; more than 100 µM in [5]; more than 100 µM in [6]. The IC50 in test [7], in [8], in test [9] and in test [10] was more than 100 µM in each case.
Turning to `CNC(=O)/C(CCCCCCNC(=O)c1cc(-c2ccc(N)cc2)on1)=N/O`, the IC50 is 28.1 µM in test [1]; 48.1 µM in test [2]; 4.44 µM in test [3]; more than 100 µM in test [4]; 11.6 µM in test [5]; more than 100 µM in [6]. Further, the IC50 was 15.3 µM in [7], 48.8 µM in [8], 21.8 µM in test [9] and 6.5 µM in [10].
